The values that follow come from US20230257351A1, “SUBSTITUTED N-[…] HAVING P2X4 RECEPTOR ANTAGONISTIC ACTIVITY” (Bayer Aktiengesellschaft, priority 2020, published 2023).

One test deals with T1, human P2X4 (Homo sapiens, UniProt Q99571).
T1 construct: expressed in transfected cells
T1 sequence (Q99571 1-388): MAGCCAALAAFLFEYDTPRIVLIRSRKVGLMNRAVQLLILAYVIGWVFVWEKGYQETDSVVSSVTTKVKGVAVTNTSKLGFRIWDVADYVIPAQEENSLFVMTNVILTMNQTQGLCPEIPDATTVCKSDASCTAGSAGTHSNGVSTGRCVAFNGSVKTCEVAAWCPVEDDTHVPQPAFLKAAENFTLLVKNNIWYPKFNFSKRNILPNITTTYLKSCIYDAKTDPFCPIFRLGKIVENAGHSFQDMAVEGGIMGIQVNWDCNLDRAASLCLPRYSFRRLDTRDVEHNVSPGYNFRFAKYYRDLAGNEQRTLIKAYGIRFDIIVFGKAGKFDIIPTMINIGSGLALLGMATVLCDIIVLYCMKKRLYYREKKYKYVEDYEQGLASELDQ
Kind of test: Human P2X4 HEK Cell FLIPR Assay. It counts as cell-based. The conditions noted are these: HEK293 stably expressing human P2X4, agonist Bz-ATP 3 μM (EC80). In a few lines:
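HEK293 cells stably expressing human P2X4 were loaded with Fluo8-AM (30 min, 37 °C, HBSS/HEPES pH 7.4 with probenecid), then preincubated 30 min at room temperature with compound, 25 μM–1 nM final, 0.5% DMSO. Bz-ATP-evoked calcium fluorescence was read on FLIPR; data were normalized to agonist control and given a four-parameter fit for IC50.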

A further test has as its target T2, rat P2X4 (Rattus norvegicus, UniProt P51577).
T2 construct: expressed in transfected cells
T2 sequence (P51577 1-388): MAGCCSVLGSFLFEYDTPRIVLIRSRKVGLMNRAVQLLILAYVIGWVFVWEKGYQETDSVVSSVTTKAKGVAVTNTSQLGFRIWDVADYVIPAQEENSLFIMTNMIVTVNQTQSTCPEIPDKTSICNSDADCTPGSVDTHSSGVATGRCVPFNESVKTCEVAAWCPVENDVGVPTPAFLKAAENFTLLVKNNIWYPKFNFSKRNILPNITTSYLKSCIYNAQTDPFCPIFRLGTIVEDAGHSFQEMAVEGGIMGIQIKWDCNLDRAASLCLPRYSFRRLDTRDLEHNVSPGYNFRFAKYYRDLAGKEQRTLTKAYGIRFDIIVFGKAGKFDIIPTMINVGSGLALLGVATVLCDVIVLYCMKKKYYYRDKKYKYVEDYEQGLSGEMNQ
Nature of the test: FLIPR Method for Rat P2X4 1321N1 Astrocytoma Cells. It counts as cell-based. The conditions noted are these: 1321N1 stably expressing rat P2X4; agonist MgATP 5 μM (EC80). In short, it runs like this:
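1321N1 cells stably expressing rat P2X4, Fluo8-AM loaded; compounds (25 μM to 1 nM final, ten concentrations) preincubated 30 min at room temperature, then MgATP added at 5 μM (EC80). Calcium fluorescence read on FLIPR before and after agonist; triplicate data normalized to agonist control, four-parameter fit gives IC50.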

As usually defined, the IC50 is the concentration that gives 50% inhibition. For the compound `CC(=O)N(c1ccc(F)c(F)c1)c1cc(NC(=O)Cc2ccc(F)cc2Cl)ccn1` [Example 68, N-{4-[2-(2-chloro-4-fluorophenyl)acetamido]pyridin-2-yl}-N-(3,4-difluorophenyl)acetamide], the “Human P2X4 HEK Cells (FLIPR Assay) avg Efficacy” value at human P2X4 worked out at 95%. Also, the results for the IC50 on human P2X4 (read-out: Human P2X4 HEK Cells (FLIPR Assay) avg IC50) and at rat P2X4 were 411 nM and 233 nM, respectively. At rat P2X4, the “Rat P2X4 1321N1 Astrocytoma Cells (FLIPR Assay) avg Efficacy” value came to 89%.
